Where two headings read alike, the source gives them in different places.
How the values were obtained:
[1] = test system: Transgenic progeny plants (T1 or later generations) containing the nsf transgene (vector 17108); experiment: T1 seed from 17108 events, spray with other HPPD herbicides; settings: sprayed at 40-80 g/ha rates or higher; evaluated for bleaching and chlorosis
Description: T0 transformants containing the nsf transgene (vector 17108) are allowed to set T1 seed, and the seed is harvested. This seed is planted, and the progeny analyzed to identify seedlots that are derived from germline transformed plants. Transgenic progeny plants (T1 or later generations), are analyzed to confirm mesotrione tolerance. […] Plants are evaluated for bleaching, and chlorosis, as described in Example 7.

[2] = test system: rice CYP81A6 enzyme; settings: Pan et al. (2007); cited from earlier work
[3] = test system: corn CYP72A1 enzyme; settings: U.S. Pat. No. 6,380,465, cited from earlier work
[4] = test system: CYP76B1 gene in tobacco (Nicotiana tabacum) and Arabidopsis; settings: cited from earlier work
[5] = test system: Negative T0 transformants (negative by Taqman for presence of transgenes); experiment: Mesotrione spray on soybean T0 plants, chlorosis rating; format: in vivo, Soybean (Glycine max); settings: 52.5 g/ha mesotrione, 22 days after the spray
Description: (§1) T0 plants were taken from tissue culture to the greenhouse where they are transplanted into saturated soil (Redi-Earth® Plug and Seedling Mix, Sun Gro Horticulture, Bellevue, Wash.) mixed with 1% granular Marathon® (Olympic Horticultural Products, Co., Mainland, Pa.) at 5-10 g/gal Redi-Earth® Mix in 2″ square pots. The plants were covered with humidity domes and placed in a Conviron chamber (Pembina, N. Dak.) with the following environmental conditions: 24° C. day; 18° C. night; 23 hr photoperiod; 80% relative humidity.
(§2) After plants became established in the soil and new growth appeared (˜1-2 weeks), plants were sampled and tested for the presence of desired transgene by Taqman® analysis using probes for P450 (CYP72A1), or promoters (prCMP and prUBq3). All positive plants and several negative plants were transplanted into 4″ square pots containing MetroMix® 380 soil (Sun Gro Horticulture, Bellevue, Wash.). Sierra 17-6-12 slow release fertilizer was incorporated into the soil at the recommended rate. The negative plants serve as controls for the spray experiment. The plants were then relocated into a standard greenhouse to acclimatize (˜1 week). The environmental conditions were: 27° C. day; 21° C. night; 12 hr photoperiod (with ambient light); ambient humidity. After acclimatizing (˜1 week), the plants were ready to be sprayed with the desired herbicides.
The plants from Example 6 were sprayed with mesotrione to determine if they were tolerant to this herbicide. Callisto® (active ingredient mesotrione, Syngenta Crop Protection, Inc., Greensboro, N.C.) was mixed in water and X-77 surfactant (0.25% v/v final concentration). Plants were placed in a DeVries spray chamber (DeVries Manufacturing, Hollandale, Minn.), and the distance from the nozzle to the top of the plants was adjusted to approximately 12 inches. The system was set up so that the boom moved at 2 mph, and delivered 25 gallon fluid per acre. The spray rate was calibrated to spray 52.5 g/ha mesotrione over the top of the plants. Negative T0 transformants (i.e., negative by Taqman® for presence of transgenes), T0 transformants with vector 17107, and one transformant with vector 17108 (event 17108-A), were sprayed in this manner. After spraying, plants were placed in the greenhouse, under the same conditions as described in Example 3 above, and evaluated frequently for symptoms. […] However, over time, leaves greened up on all plants. New growth developed as partially bleached, or chlorotic, and the leaves that initially were bleached also greened up. […] At 22 days after the spray, the plants were rated for symptoms on the leaves that were initially bleached. […]

[6] = test system: T0 transformants with vector 17107 (corn CYP72A1 cytochrome P450 gene); experiment: as above; format: in vivo, Soybean (Glycine max); settings: 17107 positive, 52.5 g/ha mesotrione, 22 days after the spray
Description: A binary vector (17107) for dicot (soybean) transformation was constructed, with the Arabidopsis UBQ3 promoter driving the corn CYP72A1 cytochrome P450 gene, followed by NOS terminator (FIG. 3). The gene was codon optimized for soybean expression based upon the predicted amino acid sequence of the maize gene coding region. The amino acid sequence of the protein encoded by the CYP72A1 gene is provided in SEQ ID NO:3, and the nucleotide sequence of the optimized CYP72A1 gene in this binary transformation vector is provided in SEQ ID NO:4. The transformation vector also contains two PAT gene cassettes (one with the 35S promoter and one with the CMP promoter, and both PAT genes are followed by the nos terminator) for glufosinate based selection during the transformation process.
as §1, §2
The plants from Example 6 were sprayed with mesotrione to determine if they were tolerant to this herbicide. Callisto® (active ingredient mesotrione, Syngenta Crop Protection, Inc., Greensboro, N.C.) was mixed in water and X-77 surfactant (0.25% v/v final concentration). Plants were placed in a DeVries spray chamber (DeVries Manufacturing, Hollandale, Minn.), and the distance from the nozzle to the top of the plants was adjusted to approximately 12 inches. The system was set up so that the boom moved at 2 mph, and delivered 25 gallon fluid per acre. The spray rate was calibrated to spray 52.5 g/ha mesotrione over the top of the plants. Negative T0 transformants (i.e., negative by Taqman® for presence of transgenes), T0 transformants with vector 17107, and one transformant with vector 17108 (event 17108-A), were sprayed in this manner. After spraying, plants were placed in the greenhouse, under the same conditions as described in Example 3 above, and evaluated frequently for symptoms. […] However, over time, leaves greened up on all plants. New growth developed as partially bleached, or chlorotic, and the leaves that initially were bleached also greened up. […] At 22 days after the spray, the plants were rated for symptoms on the leaves that were initially bleached. Visible chlorosis was only seen on the leaves immediately above the leaves that were exposed during the spray (i.e., the leaves that had necrotic spots), and in some events, on leaves in sideshoots. The partial chlorosis was evident as light green patches, and often as light green (almost yellow) edges on the leaves.

[7] = test system: transformant with vector 17108 (event 17108-A, nsf P450 gene); experiment: as above; format: in vivo, Soybean (Glycine max); settings: 52.5 g/ha mesotrione
Description: A similar binary vector (17108) was constructed with the corn cytochrome P450 gene ‘nsf’ instead of the CYP72A1 gene (FIG. 4). The nsf gene in this vector was codon optimized for soybean expression (SEQ ID NO:2) based upon the predicted amino acid sequence of the maize gene coding region (SEQ ID NO:1).
as §1, §2
The plants from Example 6 were sprayed with mesotrione to determine if they were tolerant to this herbicide. Callisto® (active ingredient mesotrione, Syngenta Crop Protection, Inc., Greensboro, N.C.) was mixed in water and X-77 surfactant (0.25% v/v final concentration). Plants were placed in a DeVries spray chamber (DeVries Manufacturing, Hollandale, Minn.), and the distance from the nozzle to the top of the plants was adjusted to approximately 12 inches. The system was set up so that the boom moved at 2 mph, and delivered 25 gallon fluid per acre. The spray rate was calibrated to spray 52.5 g/ha mesotrione over the top of the plants. Negative T0 transformants (i.e., negative by Taqman® for presence of transgenes), T0 transformants with vector 17107, and one transformant with vector 17108 (event 17108-A), were sprayed in this manner. After spraying, plants were placed in the greenhouse, under the same conditions as described in Example 3 above, and evaluated frequently for symptoms. […] However, over time, leaves greened up on all plants. […]

[8] = test system: All plants that were sprayed (negative T0 transformants, vector 17107, event 17108-A); experiment: Mesotrione spray on soybean T0 plants, early symptoms on all sprayed plants; format: in vivo, Soybean (Glycine max); settings: 52.5 g/ha mesotrione over the top
Description: as §1
After plants became established in the soil and new growth appeared (˜1-2 weeks), plants were sampled and tested for the presence of desired transgene by Taqman® analysis using probes for P450 (CYP72A1), or promoters (prCMP and prUBq3). All positive plants and several negative plants were transplanted into 4″ square pots containing MetroMix® 380 soil (Sun Gro Horticulture, Bellevue, Wash.). Sierra 17-6-12 slow release fertilizer was incorporated into the soil at the recommended rate. […] After acclimatizing (˜1 week), the plants were ready to be sprayed with the desired herbicides.
The plants from Example 6 were sprayed with mesotrione to determine if they were tolerant to this herbicide. […] After spraying, plants were placed in the greenhouse, under the same conditions as described in Example 3 above, and evaluated frequently for symptoms. […]

[9] = test system: untransformed explants (wild-type tobacco); experiment: Tobacco explants on MS agar containing mesotrione; format: in vivo; settings: 0.02 ppm mesotrione in MS agar (+3% sucrose); no recovery following prolonged exposure
Description: (§3) To determine tolerance of P450 transgenic explants (i.e. a leaf plus short segment of stem containing the auxiliary bud), these are placed into MS agar (+3% sucrose) containing various concentrations of mesotrione, from 0.02 to 2 ppm. […] In these particular experiments, only the shoot that develops from the bud is bleached, the leaf on the explanted tissue remains green.

[10] = test system: P450 transgenic explants (transgene PCR+ve transformed plants); experiment: Tobacco explants on MS agar containing mesotrione; format: in vivo
Description: Plant transformation vectors with the appropriate P450 gene expression cassette are used to transform Agrobacterium tumefaciens LBA4404. Tobacco tissue is subjected to Agrobacterium-mediated transformation using methods well described in the art. Transformed shoots are regenerated from callus resistant to the selection agent (e.g., glufosinate, butafenacil, kanamycin). Shoots are rooted on MS agar containing the selection agent.
as §3
They root normally and are phenotypically indistinguishable from untransformed plants. A sub-set of the transformants is tolerant to concentrations of >0.1 ppm yielding plants looking normal and rooting well in the presence of herbicide. Some of the transformed plants can be initially bleached when subjected to the herbicide at the said higher concentrations, but on prolonged exposure they progressively “green up” and “recover”. […]

[11] = test system: corn plants; experiment: Mesotrione levels in treated corn plants; format: in vivo; settings: over time; P450 based degradation mechanism
[12] = heterologous expression of CYP76B1, Didierjean et al. (2002)
[13] = event 17108-A, 17108 positive, 22 days after the spray

Compound: CS(=O)(=O)c1ccc(C(=O)C2=C(Sc3ccccc3)C3CCC(C3)C2=O)c(Cl)c1 (stereo not shown) [Benzobicyclon]
- tolerance when sprayed [1]: display tolerance

Compound: Cc1ccc(C(=O)COc2c(C(=O)c3ccc(Cl)c(C)c3Cl)c(C)nn2C)cc1 [Benzofenap]
- tolerance when sprayed [1]: display tolerance

Compound: CS(=O)(=O)c1cc(Cl)ccc1C(=O)c1cnoc1C1CC1 [Isoxachlortole]
- tolerance when sprayed [1]: display tolerance

Compound: Cc1nn(C)c(O)c1C(=O)c1ccc(C(F)(F)F)cc1S(C)(=O)=O [Pyrasulfatole]
- tolerance when sprayed [1]: display tolerance

Compound: CS(=O)(=O)c1ccc(C(=O)C2C(=O)CCCC2=O)c(Cl)c1 [Sulcotrione]
- tolerance when sprayed [1]: display tolerance

Compound: Cc1c(C(=O)c2cnn(C)c2O)ccc(S(C)(=O)=O)c1C1=NOCC1 [Topramezone]
- tolerance when sprayed [1]: display tolerance

Compound: CC(C)N1C(=O)c2ccccc2NS1(=O)=O [bentazon]
- ability of the enzyme to degrade the herbicide [2]: able to degrade
- ability of the enzyme to degrade the herbicide [3]: degrade

Compound: COc1cc(Cl)nc(NC(=O)NS(=O)(=O)c2ccccc2C(=O)O)n1 [chlorimuron]
- ability of the enzyme to degrade the herbicide [3]: degrade

Compound: Cc1ccc(NC(=O)N(C)C)cc1Cl [chlortoluron]
- increase in tolerance [4, 12]: 10 fold
- ability of the enzyme to degrade the herbicide [3]: degrade

Compound: CC(C)c1ccc(NC(=O)N(C)C)cc1 [isoproturon]
- increase in tolerance ([4]; in vivo): 10 fold

Compound: CON(C)C(=O)Nc1ccc(Cl)c(Cl)c1 [linuron]
- level of tolerance [4, 12]: 20 fold

Compound: CCOC(=O)CC(SP(=S)(OC)OC)C(=O)OCC (stereo not shown) [malathion]
- ability of these plants to degrade the insecticide ([3]; plants): able to degrade

Compound: CS(=O)(=O)c1ccc(C(=O)C2C(=O)CCCC2=O)c([N+](=O)[O-])c1 [mesotrione]
- Number of leaves with <50% chlorisis ([5]; event 6D032-A #4, Negative): 1
- Number of leaves with ≧50% chlorosis ([5]; event 6D032-A #4, Negative): 1
- Number of leaves with <50% chlorisis ([5]; event 6D032-A #14, Negative): 0
- Number of leaves with ≧50% chlorosis ([5]; event 6D032-A #14, Negative): 2
- Number of leaves with <50% chlorisis ([6]; event 17107-A): 0
- Number of leaves with ≧50% chlorosis ([6]; event 17107-A): 2
- Number of leaves with <50% chlorisis ([6]; event 17107-B): 2
- Number of leaves with ≧50% chlorosis ([6]; event 17107-B): 2
- Number of leaves with <50% chlorisis ([6]; event 17107-C): 1
- Number of leaves with ≧50% chlorosis ([6]; event 17107-C): 1
- Number of leaves with <50% chlorisis ([6]; event 17107-D): 2
- Number of leaves with ≧50% chlorosis ([6]; event 17107-D): 3
- Number of leaves with <50% chlorisis ([6]; event 17107-E): 1
- Number of leaves with ≧50% chlorosis ([6]; event 17107-E): 2
- Number of leaves with <50% chlorisis ([6]; event 17107-F): 2
- Number of leaves with ≧50% chlorosis ([6]; event 17107-F): 1
- Number of leaves with <50% chlorisis ([6]; event 17107-G): 2
- Number of leaves with ≧50% chlorosis ([6]; event 17107-G): 1
- Number of leaves with <50% chlorisis ([6]; event 17107-H): 4
- Number of leaves with ≧50% chlorosis ([6]; event 17107-H): 2
- Number of leaves with <50% chlorisis ([6]; event 17107-I): 1
- Number of leaves with ≧50% chlorosis ([6]; event 17107-I): 1
- recovery from the mesotrione injury ([7]; event 17108-A only): fully recover
- Number of leaves with <50% chlorisis [7, 13]: 0
- Number of leaves with ≧50% chlorosis [7, 13]: 0
- greening of bleached leaves compared with events with vector 17107 ([7]; event 17108-A, 1 week after spray): turned green faster
- symptoms on leaves exposed at the time of herbicide application [8]: developed necrotic symptoms on small portions of the leaves
- bleaching of new growth that emerged from the plants ([8]; leaves greened up over time): completely bleached
- bleaching of explants [9]: fully bleached
- bleaching at the level which causes symptoms on wild-type tobacco ([10]; a number of the transgene PCR+ve transformed plants): no indication of bleaching
- concentration tolerated, plants looking normal and rooting well ([10]; a sub-set of the transformants, mesotrione in MS agar): > 0.1 ppm
- mesotrione levels in treated corn plants [11]: decrease over time
